From patent US20240124439A1, “Pyrido[2,3-D]Imidazole Derivatives and Their Use As Inhibitors of ITK for the Treatment of Skin Disease” (Pfizer Inc., priority 2020, published 2024)

Experiments:
[1] = biological target: IL-2-Inducible T-Cell Kinase (ITK) (Homo sapiens (Human), UniProt Q08881); test: ITK enzyme assay (IL-2-inducible T-cell kinase activity); format: biochemical; conditions: geometric mean of count n
Procedure: ITK activity was determined by measuring the effect of a test compound in an ITK enzyme assay.
1.0 M HEPES Buffer pH 7.5 solution was prepared as follows: 238.3 g HEPES free acid (Sigma) and 800 mL of water were combined, and the mixture was stirred until complete dissolution. The pH was adjusted to 7.5 via titration with 5N NaOH and the volume adjusted to 1000 mL. The solution was filtered and sterilized.
ITK assay buffer was prepared as follows: 50 mL of HPLC-grade water was treated with 2 mL of 1.0 M HEPES Buffer, 500 μL of 2% Gelatin (Sigma), 1.0 mL of aqueous MgCl2 solution (1.0 M), and 1.0 mL of aqueous glutathione solution (0.5 M), and the solution was mixed. The solution was brought to 99 mL in a graduated cylinder by addition of water and sterilized through a 0.2 μm filter. 0.1 mL of Brij-35™ Surfact-Amps™ Detergent Solution (10% w/v aqueous solution, ThermoFisher) and 1.0 mL of ATP (Teknova,100 mM) were added and the solution was mixed.
Preparation of 1.33× ITK enzyme solution was as follows: 49.99 mL of ITK assay buffer was treated with 4.1 μL of ITK enzyme (ITK FL (N-Flag and C-His tagged, […]) Lake Pharma, 0.25 mg/ml in a buffer containing 25 mM Tris pH 7.8, 150 mM NaCl, 10% glycerol and 2 mM TCEP) and the mixture was gently agitated. The resulting solution was stored on ice. 30 Minutes prior to use, the enzyme solution was removed from ice and equilibrated to RT by incubation in a RT water bath.
Preparation of 4× ITK substrate solution was as follows: 50 mL of ITK assay buffer was treated with 100 μL of BTK peptide (China Peptide Company, 2 mM stock solution in DMSO). The tube was capped, mixed by gently inverting the tube, and then stored on ice. 30 Minutes prior to use, the substrate solution was removed from ice and equilibrated to RT by incubation in a RT water bath.
At the time of assay, 7.5 μL of the 1.33× ITK enzyme solution was added to plate wells containing 0.1 μL of varying concentrations of test compound in DMSO. The plate was incubated 30 min at RT. The plate wells were each treated with 2.5 uL of the 4× ITK substrate solution and the plate was sealed (TopSeal™, Perkin Elmer). The plate was spun at 1000 rpm for 30 sec and then incubated for 60 min at RT. The seal was removed, and each well was treated with 10 μL of Stop/Detect Buffer (20 mM HEPES pH 7.5, 0.01% gelatin, 1 nM LANCE PT66 (Perkin Elmer), 16.5 μg/ml Surelight APC (Perkin Elmer), 10 mM EDTA, 250 mM NaCl). The plate was again covered and was spun at 1000 rpm for […]. The plate was allowed to incubate overnight at RT and in a closed carrier to reduce dehydration. The seal was removed, and the fluorescence was read with a plate reader with an excitation wavelength of […]. The concentrations and resulting effect values for the tested compound were plotted and the concentration of compound required for 50% effect (IC50) was determined with the four-parameter logistic dose response equation.

[2] = system: activated CD4+ human T-cells (IL-2); test: IL-2 inhibition in supernatants from activated CD4+ human T-cells (cisbio HTRF); format: cell-based; conditions: T-cell; CD3/CD28-activated CD4+ human T cells, ImmunoCult stimulation 20 to 24 hrs; geometric mean of count n
Procedure: IL-2 inhibition activity in supernatants from activated CD4+ human T-cells was determined by measuring the effect of a test compound on the activity using the cisbio HTRF™ technology.
Human CD4+ T cells were activated with CD3/CD28 for 3 days and expanded for an additional 4-6 days (7 to 9 days total). On day 0, frozen CD4+ T cells were thawed, treated with CD3/CD28 Dynabeads, and incubated at 37° C./5% CO2. On day 3, the beads were removed, and the cells were diluted to 5×10^5 cells/cm^2, placed in G-Rex10 flask, and incubated at 37° C./5% CO2. On day 7 to day 9 the cells were removed from the G-Rex flasks, counted and diluted back to 1×10^6 cells/ml in standard tissue culture flask.
The expanded CD4+ T-cells were centrifuged at 300×g for 10 minutes and resuspended to 0.5 million cells per ml (30,000 cells/well). 60 μl of CD4+ T cells were added per well to a 384 well plate containing 0.1 μL of varying concentrations of test compound in DMSO. The plates were incubated for 15 min at 37° C./5% CO2. 20 μl of diluted ImmunoCult™ (STEMCELL Technologies, 1:12.5 in T cell assay media) were added to all wells of the plate (1:50 final assay concentration). The plates were incubated for an additional 20 to 24 hrs at 37° C./5% CO2. The plates were centrifuged at 300×g for 10 minutes. 16 μL of supernatant was removed and combined with 4 μl of IL-2 HTRF Abs. (cisbio kit). Plates were incubated for 3 hours at RT and read with an EnVision plate reader at 665 nm and 615 nm wavelengths. The concentrations and resulting effect values for the tested compound were plotted and the concentration of compound required for 50% effect (IC50) was determined with the four-parameter logistic dose response equation.

IL-2-Inducible T-Cell Kinase (ITK), sequence (Q08881 whole entry): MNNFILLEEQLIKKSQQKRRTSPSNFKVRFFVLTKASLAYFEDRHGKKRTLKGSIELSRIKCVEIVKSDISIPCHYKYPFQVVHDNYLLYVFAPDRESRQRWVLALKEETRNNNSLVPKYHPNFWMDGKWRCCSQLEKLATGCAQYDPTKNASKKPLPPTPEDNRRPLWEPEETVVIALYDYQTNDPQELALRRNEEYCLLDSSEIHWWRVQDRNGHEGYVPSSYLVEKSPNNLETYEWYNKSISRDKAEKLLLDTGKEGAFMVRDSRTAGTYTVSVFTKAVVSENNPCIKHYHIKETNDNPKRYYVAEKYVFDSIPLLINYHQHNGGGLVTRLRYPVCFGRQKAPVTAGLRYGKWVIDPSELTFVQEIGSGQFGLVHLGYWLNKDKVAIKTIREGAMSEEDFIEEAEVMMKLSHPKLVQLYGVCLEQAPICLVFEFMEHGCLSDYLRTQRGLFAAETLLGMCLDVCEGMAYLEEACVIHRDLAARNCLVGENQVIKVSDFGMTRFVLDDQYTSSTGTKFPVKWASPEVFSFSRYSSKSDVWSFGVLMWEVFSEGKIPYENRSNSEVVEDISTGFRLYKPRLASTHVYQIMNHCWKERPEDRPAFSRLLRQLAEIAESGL

| SMILES | IC50 [1] [nM] | IC50 [2] [nM] |
| --- | --- | --- |
| C[C@@H](C(=O)N(C)c1cnc2[nH]c(-c3n[nH]c4c3C[C@@H]3C[C@]3(C)C4)nc2c1)N1CC2CC(C1)O2 (single isomer, unassigned) [Example 41] | 116 | 600 |
| C[C@H](C(=O)N(C)c1cnc2[nH]c(-c3n[nH]c4c3C[C@@H]3C[C@]3(C)C4)nc2c1)N1CC2CC(C1)O2 (single isomer, unassigned) [Example 42] | 21 | 143 |
| CC(C)[C@@H](C(=O)N(C)c1cnc2[nH]c(-c3n[nH]c4c3CC3C[C@]3(C)C4)nc2c1)N1CCOCC1 (stereo in doubt) [Example 3, (S)-N,3-Dimethyl-N-(2-((4aR,5aR)-5a-methyl-1,4,4a,5,5a,6-hexahydrocyclopropa[f]indazol-3-yl)-3H-imidazo[4,5-b]pyridin-6-yl)-2-morpholinobutanamide] | 38 | 320 |
| CC[C@@H](C(=O)N(C)c1cnc2[nH]c(-c3n[nH]c4c3C[C@@H]3C[C@]3(C)C4)nc2c1)N1CCOCC1 [Example 4, (S)-N-Methyl-N-(2-((4aS,5aR)-5a-methyl-1,4,4a,5,5a,6-hexahydrocyclopropa[f]indazol-3-yl)-3H-imidazo[4,5-b]pyridin-6-yl)-2-morpholinobutanamide] | 38 | 205 |
| CN(C(=O)C(F)(F)C1CCOCC1)c1cnc2nc(-c3n[nH]c4c3CCC(C)(C)C4)[nH]c2c1 [Example 5, N-(2-(6,6-Dimethyl-4,5,6,7-tetrahydro-1H-indazol-3-yl)-1H-imidazo[4,5-b]pyridin-6-yl)-2,2-difluoro-N-methyl-2-(tetrahydro-2H-pyran-4-yl)acetamide] | 14 | 375 |
| CN(C(=O)Cn1cccn1)c1cnc2nc(-c3n[nH]c4c3C[C@@H]3C[C@]3(C)C4)[nH]c2c1 [Example 6, N-Methyl-N-(2-((4aS,5aR)-5a-methyl-1,4,4a,5,5a,6-hexahydrocyclopropa[f]indazol-3-yl)-1H-imidazo[4,5-b]pyridin-6-yl)-2-(1H-pyrazol-1-yl)acetamide] | 26 | 343 |
| C[C@@H](C(=O)N(C)c1cnc2nc(-c3n[nH]c4c3C[C@@H]3C[C@]3(C)C4)[nH]c2c1)n1cccn1 [Example 7, (S)-N-Methyl-N-(2-((4aS,5aR)-5a-methyl-1,4,4a,5,5a,6-hexahydrocyclopropa[f]indazol-3-yl)-1H-imidazo[4,5-b]pyridin-6-yl)-2-(1H-pyrazol-1-yl)propenamide] | 70 | 398 |
| CC(C)(C(=O)Nc1cnc2[nH]c(-c3n[nH]c4c3C[C@@H]3C[C@]3(C)C4)nc2c1)N1CCOCC1 [Example 16, 2-Methyl-N-(2-((4aS,5aR)-5a-methyl-1,4,4a,5,5a,6-hexahydrocyclopropa[f]indazol-3-yl)-3H-imidazo[4,5-b]pyridin-6-yl)-2-morpholinopropanamide] |  | 2110 |
| CC(C(=O)N(C)c1cnc2[nH]c(-c3n[nH]c4c3C[C@@H]3C[C@]3(C)C4)nc2c1)N1CCOCC1 (stereo partly drawn) [Example 27, N-Methyl-N-(2-((4aS,5aR)-5a-methyl-1,4,4a,5,5a,6-hexahydrocyclopropa[f]indazol-3-yl)-3H-imidazo[4,5-b]pyridin-6-yl)-2-morpholinopropanamide] | 62 |  |

The next lines start with the values.

| IC50 [1] [nM] | IC50 [2] [nM] | SMILES |
| --- | --- | --- |
|  | 315 | C[C@@H](C(=O)Nc1ccc2[nH]c(-c3n[nH]c4c3CCC(C)(C)C4)nc2c1)N1CCOCC1 [Example 33, (S)-N-(2-(6,6-Dimethyl-4,5,6,7-tetrahydro-1H-indazol-3-yl)-1H-benzo[d]imidazol-5-yl)-2-morpholinopropanamide] |
|  | 815 | CCc1nc2[nH]c(-c3n[nH]c4c3C[C@@H]3C[C@]3(C)C4)nc2cc1N(C)C(=O)CN1CCOCC1 [Example 37, N-(5-Ethyl-2-((4aS,5aR)-5a-methyl-1,4,4a,5,5a,6-hexahydrocyclopropa[f]indazol-3-yl)-3H-imidazo[4,5-b]pyridin-6-yl)-N-methyl-2-morpholinoacetamide] |
|  | 326 | CN(C(=O)CC1CC(F)(F)C1)c1cnc2nc(-c3n[nH]c4c3C[C@@H]3C[C@]3(C)C4)[nH]c2c1 [Example 48, 2-(3,3-Difluorocyclobutyl)-N-methyl-N-(2-((4aS,5aR)-5a-methyl-1,4,4a,5,5a,6-hexahydrocyclopropa[f]indazol-3-yl)-1H-imidazo[4,5-b]pyridin-6-yl)acetamide] |
|  | 157 | CN(C(=O)CC1CC2(CCC2)C1)c1cnc2nc(-c3n[nH]c4c3C[C@@H]3C[C@]3(C)C4)[nH]c2c1 [Example 49, N-Methyl-N-(2-((4aS,5aR)-5a-methyl-1,4,4a,5,5a,6-hexahydrocyclopropa[f]indazol-3-yl)-1H-imidazo[4,5-b]pyridin-6-yl)-2-(spiro[3.3]heptan-2-yl)acetamide] |
|  | 171 | CN(C(=O)CC1CC2(C1)CC2(F)F)c1cnc2nc(-c3n[nH]c4c3C[C@@H]3C[C@]3(C)C4)[nH]c2c1 (stereo partly drawn) [Example 50, 2-(1,1-Difluorospiro[2.3]hexan-5-yl)-N-methyl-N-(2-((4aS,5aR)-5a-methyl-1,4,4a,5,5a,6-hexahydrocyclopropa[f]indazol-3-yl)-1H-imidazo[4,5-b]pyridin-6-yl)acetamide] |
|  | 131 | CN(C(=O)CC1CC2(C1)CC(F)(F)C2)c1cnc2nc(-c3n[nH]c4c3C[C@@H]3C[C@]3(C)C4)[nH]c2c1 [Example 54, 2-(6,6-Difluorospiro[3.3]heptan-2-yl)-N-methyl-N-(2-((4aS,5aR)-5a-methyl-1,4,4a,5,5a,6-hexahydrocyclopropa[f]indazol-3-yl)-1H-imidazo[4,5-b]pyridin-6-yl)acetamide] |
| 333 |  | CN(C(=O)C(C)(C)C1CCOCC1)c1cnc2[nH]c(-c3n[nH]c4c3CCC(C)(C)C4)nc2c1 [Example 93, N-(2-(6,6-Dimethyl-4,5,6,7-tetrahydro-1H-indazol-3-yl)-3H-imidazo[4,5-b]pyridin-6-yl)-N,2-dimethyl-2-(tetrahydro-2H-pyran-4-yl)propanamide] |
| 311 |  | CN(C(=O)C1CC(C)(C)C1)c1cnc2[nH]c(-c3n[nH]c4c3CCC(C)(C)C4)nc2c1 [Example 96, N-(2-(6,6-Dimethyl-4,5,6,7-tetrahydro-1H-indazol-3-yl)-3H-imidazo[4,5-b]pyridin-6-yl)-N,3,3-trimethylcyclobutane-1-carboxamide] |
| 416 |  | CN(C(=O)C12CC(C1)C2)c1cnc2[nH]c(-c3n[nH]c4c3CCC(C)(C)C4)nc2c1 [Example 111, N-(2-(6,6-Dimethyl-4,5,6,7-tetrahydro-1H-indazol-3-yl)-3H-imidazo[4,5-b]pyridin-6-yl)-N-methylbicyclo[1.1.1]pentane-1-carboxamide] |
